For experiment [1], the system named is c-myc in Human AML MV4-11 cells. Description: Inhibition of cMYC expression (mRNA, real-time PCR) in MV4-11 cells. The format is cell-based. To be noted: 3 h treatment, cMYC mRNA by real-time PCR. Summed up: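 MV4-11 cells in IMDM with 10% FBS were treated with increasing compound concentrations (DMSO 0.1%) for 3 h at 37 °C, in triplicate. Isolated mRNA was quantified by one-step TaqMan RT-qPCR, cMYC Ct normalized to cyclophilin, and fold expression given relative to DMSO control.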

For experiment [2], the target named is Brd4 bromodomain 1 (BRD4(1)) (Homo sapiens, UniProt O60885). Description: Inhibition of tetra-acetylated histone H4 binding to Brd4 bromodomain 1, measured by FRET (HTRF). Also on record: made in house; host or cells: E. coli BL21(DE3). To be noted: 2 h at room temperature. The gist of the method: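 Inhibition was read as a drop in 665 nm relative to 620 nm HTRF signal after 2 h at room temperature, with IC50 from dose-response curves in duplicate wells. Reactions held 200 nM E. coli-expressed His-tagged bromodomain and 25-50 nM biotinylated tetra-acetylated histone H4 peptide. Buffer was 30 mM HEPES pH 7.4 with KF, CHAPS, BSA and 0.2% DMSO.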

Another experiment has as its system Human AML MV-4-11 cells. Description: Inhibition of cell proliferation in MV4-11 cells (CellTiter Aqueous One). The format is cell-based. To be noted: MV4-11, 72 h. The gist of the method:
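MV4-11 cells, 5×10^4 per well in IMDM with 10% FBS, were exposed to increasing compound concentrations or 0.1% DMSO for 72 h at 37 °C in triplicate. Viability was read by MTS (CellTiter Aqueous One) absorbance at 490 nm after 3-4 h. IC50 was derived from background-corrected signal relative to DMSO.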

For a further experiment, the system named is hIL-6 mRNA. Description: Inhibition of hIL-6 mRNA transcription in LPS-stimulated U937 macrophages. The class given is cell-based, Human. To be noted: Homo sapiens, U-937, PMA-differentiated U937 cells, 1 h pretreatment, LPS 3 h, read-out: IL-6 activity. Summed up:
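PMA-differentiated U937 macrophages (60 ng/mL PMA, 3 days) pretreated 1 h with compound in 0.1% DMSO, then stimulated with 1 ug/mL E. coli LPS for 3 h at 37° C. IL-6 mRNA quantified by one-step TaqMan qRT-PCR, normalized to cyclophilin; fold expression relative to control, triplicate wells.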

Molecules are shown by their SMILES.

Turning to `Cc1nc2c(-c3scnc3C)cc(-c3c(C)noc3C)cc2[nH]1` [Example Compound 104, 3,5-dimethyl-4-(2-methyl-4-(4-methyl-thiazol-5-yl)-1H-benzo[d]imidazol-6-yl)isoxazole], the IC50 in experiment [1] was 300 to 3000 nM; in experiment [2], not above 300 nM; with Human AML MV-4-11 cells, 300 to 3000 nM; in the experiment on hIL-6 mRNA, not above 300 nM.
With `Cc1nc2c(-c3cc(Cl)ccc3C)cc(-c3c(C)noc3C)cc2[nH]1` [Example Compound 105, 4-(4-(5-chloro-2-methyl-phenyl)-2-methyl-1H-benzo[d]imidazol-6-yl)-3,5-dimethyl isoxazole], the IC50 in experiment [1] was not above 300 nM; in experiment [2], not above 300 nM; in the experiment on Human AML MV-4-11 cells, 300 to 3000 nM; with hIL-6 mRNA it was not above 300 nM.
Turning to `Cc1nc2c(-c3cccc(C)c3F)cc(-c3c(C)noc3C)cc2[nH]1` [Example Compound 106, 4-(4-(2-fluoro-3-methyl-phenyl)-2-methyl-1H-benzo[d]imidazol-6-yl)-3,5-dimethyl isoxazole], the IC50 in experiment [1] was 300 to 3000 nM; in experiment [2] it was not above 300 nM; with Human AML MV-4-11 cells, 300 to 3000 nM; with hIL-6 mRNA, 300 to 3000 nM.
On to `COc1ccc(Cl)cc1-c1cc(-c2c(C)noc2C)cc2[nH]c(C)nc12` [Example Compound 107, 4-(4-(5-chloro-2-methoxy-phenyl)-2-methyl-1H-benzo[d]imidazol-6-yl)-3,5-dimethyl isoxazole], for which the IC50 in experiment [1] is 300 to 3000 nM; in experiment [2], not above 300 nM; in the experiment with Human AML MV-4-11 cells, 300 to 3000 nM; in the experiment on hIL-6 mRNA, 300 to 3000 nM.
For `COc1ccc(F)c(-c2cc(-c3c(C)noc3C)cc3[nH]c(C)nc23)c1` [Example Compound 108, 4-(4-(2-fluoro-5-methoxy-phenyl)-2-methyl-1H-benzo[d]imidazol-6-yl)-3,5-dimethyl isoxazole], the IC50 in experiment [1] is 300 to 3000 nM; in experiment [2] it was not above 300 nM; in the experiment with Human AML MV-4-11 cells it was 300 to 3000 nM; with hIL-6 mRNA it was 300 to 3000 nM.
For `CCOc1ncccc1-c1cc(-c2c(C)noc2C)cc2[nH]c(C)nc12` [Example Compound 109, 4-(4-(2-ethoxy-pyridin-3-yl)-2-methyl-1H-benzo[d]imidazol-6-yl)-3,5-dimethyl isoxazole], the IC50 was 300 to 3000 nM in experiment [1], not above 300 nM in experiment [2], 300 to 3000 nM with Human AML MV-4-11 cells and not above 300 nM with hIL-6 mRNA.
In the case of `Cc1nc2c(-c3cccc4ccncc34)cc(-c3c(C)noc3C)cc2[nH]1` [Example Compound 110, 4-(4-(iso-quinolin-8-yl)-2-methyl-1H-benzo[d]imidazol-6-yl)-3,5-dimethyl isoxazole], the IC50 was 300 to 3000 nM in experiment [1], not above 300 nM in experiment [2], 300 to 3000 nM in the experiment on Human AML MV-4-11 cells and 300 to 3000 nM in the experiment with hIL-6 mRNA.
`COc1ccc(F)cc1-c1cc(-c2c(C)noc2C)cc2[nH]c(C)nc12` [Example Compound 112, 4-(4-(5-fluoro-2-methoxy-phenyl)-2-methyl-1H-benzo[d]imidazol-6-yl)-3,5-dimethyl-isoxazole]: the IC50 was not above 300 nM in experiment [1], not above 300 nM in experiment [2], 300 to 3000 nM in the experiment with Human AML MV-4-11 cells and not above 300 nM in the experiment with hIL-6 mRNA.
Take `COCc1ccccc1-c1cc(-c2c(C)noc2C)cc2[nH]c(C)nc12` [Example Compound 117, 4-(4-(2-(methoxy-methyl)phenyl)-2-methyl-1H-benzo[d]imidazol-6-yl)-3,5-dimethyl-isoxazole]: the IC50 (in experiment [1]; in experiment [2]; in the experiment on Human AML MV-4-11 cells; in the experiment with hIL-6 mRNA) was not above 300 nM throughout.
`COc1ncccc1-c1cc(-c2c(C)noc2C)cc2[nH]c(C)nc12` [Example Compound 118, 4-(4-(2-methoxy-pyridin-3-yl)-2-methyl-1H-benzo[d]imidazol-6-yl)-3,5-dimethyl isoxazole]: the IC50 in experiment [1] is 300 to 3000 nM; in experiment [2], not above 300 nM; with Human AML MV-4-11 cells it was 300 to 3000 nM; in the experiment with hIL-6 mRNA, 300 to 3000 nM.

Values taken from patent US9999616B2 (ZENITH EPIGENETICS LTD., priority 2013, dated 2018).
